# Data reported in ChEMBL document CHEMBL1151672, “Amarogentin, a naturally occurring secoiridoid glycoside and a newly recognized inhibitor of topoisomerase I from Leishmania donovani” (J Nat Prod, 1996).
# Active and inactive are the calls of the source. The calls are words filed in the database; no cut-off is given here.
# System: Leishmania donovani
# Experiment: Inhibition of 2 units of Leishmania donovani MHOM/IN/1978/UR6 DNA topoisomerase 1-mediated supercoiled pGEM4Z DNA relaxation at 5 to 10 uM preincubated for 10 mins prior to DNA addition by agarose gel electrophoresis
compound,measurement,value
CC[C@@]1(O)C(=O)OCc2c1cc1n(c2=O)Cc2cc3ccccc3nc2-1,Activity,Active
